This note sets out measurements from PubChem BioAssay AID858 (Vanderbilt High Throughput Screening Facility, 2007).

The structures appear in SMILES notation. Activity calls are given as the source filed them.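 How the source made its calls: active means at least two of three replicate dose series yielding a converging curve fit, whether well or thinly supported; inactive means the rest.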

D(1A) dopamine receptor (Homo sapiens), sequence (P21728 whole entry, looked up): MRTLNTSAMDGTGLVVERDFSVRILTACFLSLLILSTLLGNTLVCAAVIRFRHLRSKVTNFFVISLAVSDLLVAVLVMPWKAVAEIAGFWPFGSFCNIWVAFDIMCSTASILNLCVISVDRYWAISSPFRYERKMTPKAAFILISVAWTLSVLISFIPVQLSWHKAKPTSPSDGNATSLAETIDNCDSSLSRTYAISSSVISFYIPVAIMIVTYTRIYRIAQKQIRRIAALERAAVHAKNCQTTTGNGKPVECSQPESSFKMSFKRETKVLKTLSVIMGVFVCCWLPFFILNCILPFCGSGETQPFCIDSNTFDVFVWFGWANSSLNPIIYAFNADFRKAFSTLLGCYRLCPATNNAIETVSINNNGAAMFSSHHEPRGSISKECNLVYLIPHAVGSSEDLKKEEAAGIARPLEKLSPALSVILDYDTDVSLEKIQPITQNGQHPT

This assay concerns the target D(1A) dopamine receptor (Homo sapiens) (UniProt P21728). The assay can be described thus: concentration-dependent D1 reporter signal change – cell-based, CRE-luciferase, HEK293, dopamine EC30, D1 allosteric modulator project, dose response (AID 858).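 Further: HEK 293 cells bearing human D1 receptor stimulated by dopamine at its EC30; luciferase light from a cAMP response element reporter gene.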
On to `CCC(C)Nc1nc(OC)nc(N(C)C#N)n1` (configuration not stated), for which the result was inactive.
With `CCOC(=O)c1c(-c2cccs2)csc1NC(=O)CSc1ncn[nH]1`, the outcome was inactive.
`CCOC(=O)CSc1nc2c(sc(=S)n2Cc2ccco2)c(=O)n1-c1ccccc1`: the result was inactive.
Consider `CCOc1ncccc1C(=O)OCc1nnc(-c2ccccc2)o1`, for which the result was inactive.
Same read-out and setting: under `Cc1cc(SCC(=O)N2CCC(c3noc4ccc(F)cc34)CC2)nc2ccccc12` stands “inactive”.
In the case of `COC(=O)c1sc2ccccc2c1C(=O)OC`, the result was inactive.
On the same count and under the same terms, under `Nc1nc(SCc2ccc3c(c2)OCCO3)n[nH]1` stands “inactive”.
On the same count and under the same terms, the value for `COc1ccc(CCN2CCCn3c2nc2c3c(=O)n(Cc3ccccc3F)c(=O)n2C)cc1OC` was “inactive”; that for `Cn1c(Cn2c(=O)sc3ccccc32)nnc1SCC(=O)N1CCOCC1` was “inactive”.
Still for that read-out and setting: the value for `CCOCCOC(=O)C1=C(C)Nc2ccc(C)cc2S1` was “inactive”.
For `O=C(CSc1nc2ccccc2s1)NC(=O)NCc1ccco1`, the outcome was inactive.
Regarding `CCOC(=O)C(C)Oc1cccc2c(=O)n(CC(=O)NCc3ccco3)ccc12` (configuration not stated), the result was inactive.
In the case of `CSC1=NCCN1C(=O)Cc1cccs1`, the result was inactive.
The same measure, in the same setting: under `CCOc1ccccc1C1NC(=O)NC(C)=C1C(=O)OC1CCCCC1` (configuration not stated) stands “inactive”; under `Cc1cccc(-c2c3c(=O)n(C)c(=O)n(C)c3cn2-c2ccccc2O)c1`, “inactive”; under `COCCNC(=O)c1c(NC(=O)c2ccco2)n(Cc2ccccc2)c2nc3ccccc3nc12`, “inactive”.
The same measure, in the same setting: the value for `CC(C)Sc1nc2c(c(=O)n1C)SC(C)C2` (configuration not stated) was “inactive”.
Consider `CCn1ncc(C2=NOC(C(=O)Nc3ccc4c(c3)OCO4)C2)c1C` (configuration not stated), for which the outcome was inactive.
As to `CCOc1ccccc1C1CC(c2ccccc2)Nc2nc(N)nn21` (configuration not stated), the outcome was inactive.
Still for that read-out and setting: the value for `COc1ccc2[nH]c(=O)c(CN(Cc3cccs3)Cc3nnnn3C(C)(C)C)cc2c1` was “inactive”.
The same measure, in the same setting: the value for `Cc1nc2ccc(CCO)cc2s1` was “inactive”.
In general, EC50 refers to the midpoint of the concentration-response curve. Take `CCOc1ccc(C2Oc3nc(SC)nnc3-c3ccccc3N2C(C)=O)cc1OC` (configuration not stated): the concentration giving a half-maximal response (EC50) was 2380 nM.
`Cc1ccc(S(=O)(=O)N2CCN(C(=O)COC(=O)c3cc(C)oc3C)CC2)cc1`: the result was inactive.
With `N#CC1=C(N)Oc2n[nH]c(-c3cccs3)c2C1c1ccsc1` (configuration not stated), the outcome was inactive.
On the same count and under the same terms, the value for `COC(=O)c1c(-c2ccccc2)csc1NC(=O)c1ccco1` was “inactive”.
Regarding `COc1c(S(=O)(=O)n2nc(C)cc2C)ccc(Cl)c1Cl`, the result was inactive.
Same read-out and setting: under `CCn1c(SCC(=O)Nc2ccccc2N2CCCCC2)nc2c1c(=O)n(C)c(=O)n2C` stands “inactive”.
Still for that read-out and setting: under `COc1ccccc1-c1nnc2n1N=C(C(C)(C)C)CS2` stands “inactive”; under `COc1ccc(S(=O)(=O)N2CCSC2c2ccc(OC)c(OC)c2)cc1` (configuration not stated), “inactive”.
The same measure, in the same setting: under `CCOC(=O)c1c(C2CC2)csc1NC(C)=O` stands “inactive”; under `CCOC(=O)c1c(-c2ccsc2)csc1N`, “inactive”.
As for `CCc1nc2sc3ccccc3c(=O)c2c(=O)n1Cc1ccco1`, the result was inactive.
The same measure, in the same setting: the value for `COC(=O)c1cc(=O)n(Cc2ccco2)c(=Nc2ccc(F)c(Cl)c2)s1` was “inactive”.
The same measure, in the same setting: under `Cc1cc(-c2ccccc2)c(C#N)c(SCC(N)=O)n1` stands “inactive”; under `Cc1cc(NCCCn2ccnc2)n2c(nc3ccccc32)c1C#N`, “inactive”.
On to `CCOC(=O)c1c(C)c(C(=O)NCc2ccccc2OC)c(C)n1C`, for which the result was inactive.
On to `c1ccc(-c2nc3ccccc3c3nncn23)cc1`, for which the result was inactive.
The same measure, in the same setting: under `Nc1nc(SCC(=O)OCc2ccccc2)[nH]c(=O)c1NC(=O)c1ccco1` stands “inactive”; under `Cc1cc(N2CCN(S(=O)(=O)c3ccc4c(c3)OCCO4)CC2)n2ncnc2n1`, “inactive”; under `CCC(=O)NC(=Nc1nc2ccccc2s1)NC(=O)CC`, “inactive”.
Regarding `c1ccc(-c2nc3nonc3nc2-c2ccccc2)cc1`, the outcome was inactive.
For `Cc1cc(C)c(C#N)c(SCc2ccc(C#N)cc2)n1`, the outcome was inactive.
In the case of `COC(=O)c1cc(NC(=O)CSc2nc(C)cc(=O)[nH]2)cc(C(=O)OC)c1`, the outcome was inactive.
As to `C=CCSc1nc2ccccc2c(=O)[nH]1`, the result was inactive.
The same measure, in the same setting: the value for `CC1(C)CN=C(Nc2nc3ccccc3s2)S1` was “inactive”.
Take `COc1ccc(C(=O)Nc2nnc(Cc3cccs3)s2)cc1OC`: the EC50 is 313 nM.
As to `CS(=O)(=O)c1sc2nc(-c3cccs3)cc(-c3ccccc3)c2c1N`, the outcome was inactive.
On to `CCOC(=O)c1ccc(N2CN=C3SCC(=O)N3C2)cc1`, for which the outcome was inactive.
As for `COc1ccc(OC)c(/C=N/c2oc(-c3ccco3)c(-c3ccco3)c2C#N)c1`, the concentration for a half-maximal effect (EC50) was 1970 nM.
As for `COc1ccc(C2CC(=O)Nc3ccccc3S2(=O)=O)cc1OC` (configuration not stated), the outcome was inactive.
Consider `Clc1ccccc1-c1nn2c(-c3ccncc3)nnc2s1`, for which the outcome was inactive.
Same read-out and setting: the value for `CC(=O)c1cc(C#N)c(SCC(=O)OC(C)(C)C)nc1C` was “inactive”.
For `COc1ncnc2c1N=C1CC(C)(C)CC(N)=C1S2`, the outcome was inactive.
Still for that read-out and setting: under `CSc1nc2oc3c(c2c2nncn12)CC(C)(C)SC3` stands “inactive”; under `CCC(=O)N1CCc2cc(S(=O)(=O)NCCC(=O)NC3CCCc4ccccc43)ccc21` (configuration not stated), “inactive”.
On the same count and under the same terms, the value for `CCOc1ccc(CC(=O)Nc2c(C(N)=O)oc3ccccc23)cc1OCC` was “inactive”; that for `CCC(=O)n1nc(-c2ccco2)nc1N` was “inactive”.
Regarding `CCCCn1c(=NC(=O)c2cccnc2)c(C(=O)OCC)cc2c(=O)n3ccccc3nc21`, the EC50 was 2020 nM.
For the molecule `Cc1cccc(C2CC(c3ccc(F)cc3)Nc3nc(N)nn32)c1` (configuration not stated), the outcome was inactive.
Regarding `CCOC(=O)N1CCC(N2Cc3cccc(C(=O)NC(C)c4ccc5c(c4)OCCO5)c3C2=O)CC1` (configuration not stated), the result was inactive.
On the same count and under the same terms, the value for `CSc1oc(-c2ccco2)nc1S(=O)(=O)c1ccc(F)cc1` was “inactive”; that for `Cn1c(=O)c2c(-c3ccc(C(C)(C)C)cc3)n(N3CCOCC3)cc2n(C)c1=O` was “inactive”.
Still for that read-out and setting: under `CCn1nc(C(=O)NC2=NCCS2)c2ccccc2c1=O` stands “inactive”.
On the same count and under the same terms, the value for `CC(C)Cc1nc(N2CCN(C(=O)C(C)C)CC2)c(C#N)c2c1CCC2` was “inactive”; that for `CCOC(=O)c1nc(-c2ccccc2)oc1N(C)C` was “inactive”.
With `CCCOc1ccccc1NC(=O)c1ccc(N)cc1`, the result was inactive.
Same read-out and setting: the value for `CC(C)C1C2=C(CC(C)(C)CC2=O)ON1c1ccccc1` (configuration not stated) was “inactive”; that for `O=C(CCCc1nc2ccccc2s1)N1CCN(S(=O)(=O)c2cccs2)CC1` was “inactive”.
On the same count and under the same terms, under `O=C(CC1SC(=NC2CCCCC2)NC1=O)Nc1ccccc1` (configuration not stated) stands “inactive”.
`CCn1c(=O)c2cc(S(=O)(=O)NC3CCCCC3)ccc2n(CC)c1=O`: the outcome was inactive.
On the same count and under the same terms, under `CCc1nnc(NC(=O)CSc2ncc(-c3ccccc3)n2CC)s1` stands “inactive”; under `O=C1CC(c2ccsc2)c2cc3c(cc2N1)OCCO3` (configuration not stated), “inactive”.
The same measure, in the same setting: the value for `O=S1(=O)N=C(N2CCc3ccccc3C2)c2ccccc21` was “inactive”; that for `Cc1noc(C)c1CSc1ncnc2ccccc12` was “inactive”.
Turning to `CCOC(=O)N1CCN(S(=O)(=O)c2ccc3c(c2)CCN3C(=O)C2CCC2)CC1`, the result was inactive.
Take `COc1ccc(-c2cc(=O)oc3c(C)c(O)c(CN(C)C)cc23)cc1`: the outcome was inactive.
Regarding `COc1ccc(OC)c(C(=O)COC(=O)C2CC3CCCC(C2)C3=O)c1` (configuration not stated), the result was inactive.
Consider `CCC1(CC)C(=O)NC(=NCCc2c[nH]c3ccccc23)NC1=O`, for which the result was inactive.
Regarding `c1ccc2c(c1)nc(NCC1CCCO1)c1nnnn12` (configuration not stated), the outcome was inactive.
Regarding `NC(=O)CSc1nc2scc(-c3ccco3)c2c(=O)n1-c1ccccc1`, the 50% effective concentration (EC50) is 1630 nM.
Consider `COc1cc2c(cc1OC)C(C(=O)Nc1ccc3c(c1)OCCO3)C1c3ccccc3CCN1C2=O` (configuration not stated), for which the result was inactive.
Take `CCn1c(=O)c(C(=O)NCc2cccnc2)c(O)c2ccccc21`: the outcome was inactive.
As for `CSc1ccccc1NC(=O)c1onc(C)c1Cl`, the outcome was inactive.
Turning to `N#Cc1cc2ccccc2nc1SCC(=O)Nc1ccc(S(=O)(=O)N2CCCC2)cc1`, the outcome was inactive.
The same measure, in the same setting: under `N#Cc1cnn(Cc2ccccc2)c1/N=C/N1CCOCC1` stands “inactive”; under `COc1ccccc1CNC(=O)c1ccc(NS(=O)(=O)c2c(C)noc2C)cc1`, “inactive”.
Same read-out and setting: the value for `Cn1nnnc1SCC(=O)Nc1nc(-c2ccccc2)c(-c2ccccc2)o1` was “inactive”; that for `CC(C)Cn1c(-c2cccs2)nc2nc3ccccc3nc21` was “inactive”.
Same read-out and setting: under `COc1ccc(N2C(=O)C3CCCN3C2c2ccccc2)cc1Cl` (configuration not stated) stands “inactive”; under `Cc1ccc(Nc2nnc(SCc3cc(=O)n4ccsc4n3)s2)c(C)c1`, “inactive”; under `COc1ccc(OC)c(C2=NOC(C(=O)Nc3cccc(C(C)=O)c3)C2)c1` (configuration not stated), “inactive”.
Take `CCOC(=O)c1[nH]c2ccccc2c1NC(=O)C(C)(C)C`: the outcome was inactive.
Still for that read-out and setting: under `CCCCCn1c(SCC(=O)OC)nc2c1c(=O)[nH]c(=O)n2C` stands “inactive”.
Same read-out and setting: the value for `CCSc1cnc(-c2ccccc2)n1CC` was “inactive”.
Regarding `COc1ccc(CCN(C)C(=O)C2CCCN(Cc3ccc(OC)c(OC)c3)C2)cc1OC` (configuration not stated), the result was inactive.
The same measure, in the same setting: under `C=CCn1c(SCc2nc3c(c(=O)[nH]c(=O)n3CCCC)n2CCC)nnc1-c1ccccc1` stands “inactive”; under `O=C1CSc2ccccc2N1Cc1ccccc1F`, “inactive”.
